Target: T1, ERR1 (also known as ERR-α or ERR-1) (Homo sapiens, UniProt P11474)
T1 sequence (P11474 193-421 limits assumed): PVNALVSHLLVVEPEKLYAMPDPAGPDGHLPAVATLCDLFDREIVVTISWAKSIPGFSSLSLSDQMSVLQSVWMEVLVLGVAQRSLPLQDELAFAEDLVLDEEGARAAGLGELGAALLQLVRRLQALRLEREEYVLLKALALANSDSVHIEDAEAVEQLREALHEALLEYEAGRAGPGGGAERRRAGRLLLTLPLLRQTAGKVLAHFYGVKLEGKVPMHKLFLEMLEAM
Test: TR-FRET assay (disruption of co-activator peptide binding)
Assay type: biochemical
Conditions: 6His-tagged ERR1LBD, GST-hSRC2 co-activator peptide; average of 3 independent experiments
Experimental: Time-Resolved Fluorescence Resonance Energy Transfer (TR-FRET) experiments were performed to examine the functional response of ERR1 (also known as ERR-α or ERR-1) ligands. The TR-FRET assay described herein relied on the conformation of ERR1 for binding to a co-activator peptide: when a test compound binds to ERR1 and alters its conformation, it can disrupt the binding of the co-activator peptide. The components of this homogeneous secondary assay included: the ^6His-tagged-ERR1LBD, a GST-labeled-hSRC2 co-activator polypeptide and a fluorescent donor/acceptor pair from CIS bio international htrf/bioassays (Bedford, Mass.) using both an α-GST Europium Cryptate (Eu) label and an α^6His-XL665 (allophycocyanin) fluorophore.
For TR-FRET measurements, the reaction was buffered in 25 mM Tris pH 8, 2.5 mM Hepes, 20 mM KCl, 1 mM DTT, and 0.05 mg/mL BSA (-lipids). The final concentrations of reagents were 6 nM of ERR1LBD, 6 nM GST-SRC-2 peptide, 30 nM Eu cryptate, and 7.5 nM XL665. Reactions were allowed to reach equilibrium at 25° C. for 4-18 hours before collecting data on the Analyst from LJL Biosystems (Molecular Devices Sunnyvale, Calif.). As a time-resolved method, the samples were excited at […] and emission was collected for 1 ms at both 615 and 665 nm with delays of 400 and 75 μs, respectively. Dose response curves were fitted using a hyperbolic equation and the data reported is the average of 3 independent experiments.

| Structure (SMILES) | EC50 [nM] |
| --- | --- |
| CONC(=O)[C@H]1C[C@H](N(C)C2=NC(=O)/C(=C/c3ccc4c(cnn4Cc4ccc(Cl)cc4C(F)(F)F)c3)S2)CN1 [Compound 60, 4-({5-[1-(4-Chloro-2-trifluoromethyl-benzyl)-1H-indazol-5-ylmethylene]-4-oxo-4,5-dihydro-thiazol-2-yl}-methyl-amino)-pyrrolidine-2-carboxylic acid methoxy-amide] | 25 |
| CN(C1=NC(=O)/C(=C/c2ccc3c(cnn3Cc3ccc(Cl)cc3C(F)(F)F)c2)S1)[C@H]1CCNC[C@H]1F [Compound 54, 5-({1-[4-Chloro-2-(trifluoromethyl)benzyl]-1H-indazol-5-yl}methylidene)-2-{[(3R,4S)-3-fluoropiperidin-4-yl](methyl)amino}-1,3-thiazol-4(5H)-one] | 21 |
| CN1CCC(N(C)C2=NC(=O)/C(=C/c3ccc4c(cnn4Cc4ccc(Cl)cc4C(F)(F)F)c3)S2)C1 (centres unmarked) [Compound 35, 5-[1-(4-Chloro-2-trifluoromethyl-benzyl)-1H-indazol-5-ylmethylene]-2-[methyl-(1-methyl-pyrrolidin-3-yl)-amino]-thiazol-4-one] | 18 |
| CC(C(N)=O)N1CCC(N(C)C2=NC(=O)/C(=C/c3ccc4c(cnn4Cc4ccc(C(F)(F)F)cc4C(F)(F)F)c3)S2)CC1 (centres unmarked) [Compound 53, 2-(4-{[-5-({1-[2,4-Bis(trifluoromethyl)benzyl]-1H-indazol-5-yl}methylidene)-4-oxo-4,5-dihydro-1,3-thiazol-2-yl](methyl)amino}piperidin-1-yl)propionamide] | 24 |

Results, then the molecule that gave them:

| EC50 [nM] | Structure (SMILES) |
| --- | --- |
| 800 | COCCN(CCOC)C1=NC(=O)/C(=C/c2ccc3c(cnn3Cc3ncc(C(F)(F)F)cc3Cl)c2)S1 [Compound 10, 2-[Bis-(2-methoxy-ethyl)-amino]-5-[1-(3-chloro-5-trifluoromethyl-pyridin-2-ylmethyl)-1H-indazol-5-ylmethylene]-thiazol-4-one] |
| 120 | N#Cc1ccc(Cn2ncc3cc(/C=C4\SC(N(CCO)CCO)=NC4=O)ccc32)c(C(F)(F)F)c1 [Compound 3, 4-(5-{2-[Bis-(2-hydroxy-ethyl)-amino]-4-oxo-4H-thiazol-5-ylidenemethyl}-indazol-1-ylmethyl)-3-trifluoromethyl-benzonitrile] |
| 38 | CN(CC(=O)O)C1=NC(=O)/C(=C/c2ccc3c(cnn3Cc3ccc(C(F)(F)F)cc3C(F)(F)F)c2)S1 [Compound 58, ({5-[1-(2,4-Bis-trifluoromethyl-benzyl)-1H-indazol-5-ylmethylene]-4-oxo-4,5-dihydro-thiazol-2-yl}-methyl-amino)-acetic acid] |
| 17 | COCCN1CCC(CN(C)C2=NC(=O)/C(=C/c3ccc4c(cnn4Cc4ccc(Cl)cc4C(F)(F)F)c3)S2)C1 (centres unmarked) [Compound 47, 5-[1-(4-Chloro-2-trifluoromethyl-benzyl)-1H-indazol-5-ylmethylene]-2-{[1-(2-methoxy-ethyl)-pyrrolidin-3-ylmethyl]-methyl-amino}-thiazol-4-one] |
| 13 | CN(CC(=O)O)C1=NC(=O)/C(=C/c2ccc3c(cnn3Cc3ccc(Cl)cc3C(F)(F)F)c2)S1 [Compound 22, ({5-[1-(4-Chloro-2-trifluoromethyl-benzyl)-1H-indazol-5-ylmethylene]-4-oxo-4,5-dihydro-thiazol-2-yl}-methyl-amino)-acetic acid] |
| 22 | CN(Cc1cccnc1)C1=NC(=O)/C(=C/c2ccc3c(cnn3Cc3ccc(Cl)cc3C(F)(F)F)c2)S1 [Compound 46, 5-[1-(4-Chloro-2-trifluoromethyl-benzyl)-1H-indazol-5-ylmethylene]-2-(methyl-pyridin-3-ylmethyl-amino)-thiazol-4-one] |
| 12 | CN(C)C1=NC(=O)/C(=C/c2ccc3c(cnn3Cc3ccc(C(F)(F)F)cc3C(F)(F)F)c2)S1 [Compound 1, 5-[1-(2,4-Bis-trifluoromethyl-benzyl)-1H-indazol-5-ylmethylene]-2-dimethylamino-thiazol-4-one] |
